According to patent publication US20250332167A1, “PHARMACEUTICAL USE OF CDK 4/6 INHIBITOR” (priority 2021, published 2025):

Legend:
Type in all cases: cell-based
SK-MES-1 = experiment: Proliferation inhibition, non-small cell lung cancer cell line SK-MES-1; conditions: Homo sapiens, SK-MES-1, 72 h
Experimental: (§1) Sixteen non-small cell lung cancer cell lines, including NCI-H1792, NCI-H1703, NCI-H441, SNU-761, NCI-H1975, NCI-H358, NCI-H1838, NCI-H1915, A549, SK-MES-1, NCI-H292, PC-9, NCI-H460, NCI-H23, NCI-H1581, and HLF, were used for the proliferation inhibition assay of the present invention compound. […] The cell detection equipment used was In Cell Analyzer 2200 (GE Healthcare).
(§2) With 60 μM as the initial concentration, ten points were obtained by serial five-fold dilution.
(§3) Each kind of cell in logarithmic growth phase was inoculated with 4000 cells/100 μl/well into a black transparent bottom 96-well plate and cultured overnight at 37° C. The next day, the plate was taken out, and 20 μL of the prepared sample dilutions was added to each well. The plate was then subjected to treatment at 37° C. for 72 hours. After the treatment period of 72 hours, the plate was taken out and 50 μL of neutral formaldehyde fixative (formaldehyde: PBS=1:9, 50 μl/well) was added to each well. The plate was then fixed at room temperature for 10-30 minutes. Subsequently, the wells were washed twice with 1× PBS (100 μl/well) and treated with 0.2% Triton™-X100 for 5-10 minutes to permeabilize the cells. […] The inhibitory rates of each compound at different concentration points were calculated by using the following formula, and IC50 values were obtained through curve fitting using GraphPad Prism 6.0 software.

NCI-H1792 = experiment: Proliferation inhibition, non-small cell lung cancer cell line NCI-H1792; conditions: Homo sapiens, NCI-H1792, 72 h
Experimental: as §1, §2, §3

NCI-H1581 = experiment: Proliferation inhibition, non-small cell lung cancer cell line NCI-H1581; conditions: Homo sapiens, NCI-H1581, 72 h
Experimental: as §1, §2, §3

## CC1=Nc2c(F)cc(-c3nc(Nc4ccc(C5CCN(C)CC5)cn4)ncc3F)cc2C12CCCC2.O=C(O)/C=C/C(=O)O [Compound A, Fumarate salt of 5-fluoro-4-(7′-fluoro-2′-methylspiro[cyclopentane-1,3′-indol]-5′-yl)-N-(5-(1-methylpiperidin-4-yl)pyridin-2-yl)pyrimidine-2-amine]
SK-MES-1
  IC50: 67 nM
NCI-H1792
  IC50: 3 nM
NCI-H1581
  IC50: 1120 nM
